# From ChEMBL document CHEMBL4814046, “Inhibitory effects and mechanism of antifungal action of the natural cyclic depsipeptide, aureobasidin A against Cryptococcus neoformans” (Bioorg Med Chem Lett, 2021)
# Calls of active or inactive are those of the source. No cut-off for these calls is given here. *1 amine or outer side, *2 acyl side, *3 side chain or, on linkers, in order; H or OH if unused. Where a SMILES comes first, the peptide text is derived from it. [ ]: non-standard residue; d: D form. X1 = CC[C@@H](C)[C@@H](O[*:1])C(=O)[*:2]; NMeVal(β-OH) = CN[C@H](C(=O)O)C(C)(C)O; NMeF = CN[C@@H](Cc1ccccc1)C(=O)O; aIle = CC[C@@H](C)[C@H](N)C(=O)O; NMeV = CN[C@H](C(=O)O)C(C)C
# Key:
# Cryptococcus neoformans [1] = assay: Antifungal activity against Cryptococcus neoformans PFCC 93-589 assessed as TOS production at 0.5 times MIC incubated for 10 mins measured per mg of protein by colorimetric method (reference value: 1.04 umol); format: functional
# Cryptococcus neoformans [2] = assay: Downregulation of Cxt1p gene expression in Cryptococcus neoformans PFCC 93-589 assessed as fold decrease in […] at 2 ug/ml by SYBR green based RT-PCR analysis; format: functional; details: dose 2.0 µg/ml
# [3] = Hemolytic activity in human RBC at 4 ug/ml incubated for 30 mins; format: cell-based, Erythrocyte; details: red blood cells (erythrocytes), at 4 µg/mL, read-out: Activity
# [4] = Cytotoxicity against human HEK293 cells assessed as cell survival at 0.25 times MIC incubated for 24 hrs by MTT assay; format: cell-based; details: read-out: Activity
# Cryptococcus neoformans [5] = assay: Downregulation of Cxt1p gene expression in Cryptococcus neoformans PFCC 93-589 at 2 ug/ml by SYBR green based RT-PCR analysis relative to control; format: functional; details: dose 2.0 µg/ml
# Cryptococcus neoformans [6] = assay: Induction of morphological changes in Cryptococcus neoformans PFCC 93-589 assessed as disorganization of cytoplasmic content at 2 ug/ml after 48 hrs by TEM analysis; format: functional, organism-based; details: dose 2.0 µg/ml
# Cryptococcus neoformans [7] = assay: Antifungal activity against Cryptococcus neoformans PFCC 93-589 assessed as TOS production at 1 times MIC incubated for 10 mins measured per mg of protein by colorimetric method (reference value: 1.19 umol); format: functional
# [8] = Hemolytic activity in human RBC at 8 ug/ml incubated for 30 mins; format: ADME, cell-based, Erythrocyte; details: red blood cells (erythrocytes), at 8 µg/mL, read-out: Activity
# Cryptococcus neoformans [9] = assay: Antifungal activity against Cryptococcus neoformans PFCC 93-589 assessed as TOS production at 2 times MIC incubated for 10 mins measured per mg of protein by colorimetric method (reference value: 1.63 umol); format: functional
# Cryptococcus neoformans [10] = assay: Antifungal activity against Cryptococcus neoformans PFCC 93-589 in presence of fluconazole by checkerboard microtiter assay; format: functional
# [11] = Hemolytic activity in human RBC at 2 ug/ml incubated for 30 mins; format: ADME, cell-based, Erythrocyte; details: red blood cells (erythrocytes), at 2 µg/mL, read-out: Activity
# Aspergillus niger = assay: Antifungal activity against Aspergillus niger incubated for 48 hrs by broth microdilution method; format: functional
# Cryptococcus neoformans [12] = assay: Inhibition of ergosterol biosynthesis in Cryptococcus neoformans PFCC 93-589 cell membrane assessed as ergosterol content at 1 times MIC incubated for 48 hrs by UV-visible spectrophotometric analysis (reference value: 0.134); format: functional, cell membranes
# Cryptococcus neoformans [13] = assay: Inhibition of ergosterol biosynthesis in Cryptococcus neoformans PFCC 93-589 cell membrane at 0.5 times MIC incubated for 48 hrs by UV-visible spectrophotometric analysis; format: functional, cell membranes
# Cryptococcus neoformans [14] = assay: Inhibition of ergosterol biosynthesis in Cryptococcus neoformans PFCC 93-589 cell membrane assessed as ergosterol content at 0.5 times MIC incubated for 48 hrs by UV-visible spectrophotometric analysis (reference value: 0.134); format: functional, cell membranes
# Candida tropicalis = assay: Antifungal activity against Candida tropicalis incubated for 24 hrs by broth microdilution method; format: functional
# Cryptococcus neoformans [15] = assay: Fungicidal activity against Cryptococcus neoformans PFCC 93-589 by broth microdilution assay; format: functional
# Cryptococcus neoformans [16] = assay: Antifungal activity against Cryptococcus neoformans PFCC 93-589 after 7 days in presence of sorbitol by microdilution assay; format: functional; details: PFCC 93-589, 168 h, time 7 day
# [17] = Hemolytic activity in human RBC at 1 ug/ml incubated for 30 mins; format: ADME, cell-based, Erythrocyte; details: red blood cells (erythrocytes), at 1 µg/mL, read-out: Activity
# Cryptococcus neoformans [18] = assay: Antifungal activity against Cryptococcus neoformans PFCC 93-589 after 7 days in absence of sorbitol by microdilution assay; format: functional; details: PFCC 93-589, 168 h, time 7 day
# Cryptococcus neoformans [19] = assay: Antifungal activity against Cryptococcus neoformans PFCC 93-589 assessed as half minimum inhibitory concentration by broth microdilution assay; format: functional
# Aspergillus flavus = assay: Antifungal activity against Aspergillus flavus incubated for 48 hrs by broth microdilution method; format: functional
# Cryptococcus neoformans [20] = assay: Antifungal activity against Cryptococcus neoformans PFCC 93-589 by broth microdilution assay; format: functional
# Cryptococcus neoformans [21] = assay: Upregulation of Lac1 gene expression in Cryptococcus neoformans PFCC 93-589 assessed as fold increase in […] at 2 ug/ml by SYBR green based RT-PCR analysis; format: functional; details: dose 2.0 µg/ml
# [22] = Hemolytic activity in human RBC at 0.5 ug/ml incubated for 30 mins; format: ADME, cell-based, Erythrocyte; details: red blood cells (erythrocytes), at 0.5 µg/mL, read-out: Activity
# Cryptococcus neoformans [23] = assay: Induction of morphological changes in Cryptococcus neoformans PFCC 93-589 assessed as deposition of lipid globules at 2 ug/ml after 48 hrs by TEM analysis; format: functional, organism-based; details: dose 2.0 µg/ml
# Cryptococcus neoformans [24] = assay: Antifungal activity against Cryptococcus neoformans PFCC 93-589 assessed as increase in extracellular potassium leakage at 2 times MIC incubated up to 12 hrs measured per mg dry weight of cell by spectrophotometric method; format: functional; details: time hrs <=12
# Cryptococcus neoformans [25] = assay: Inhibition of ergosterol biosynthesis in Cryptococcus neoformans PFCC 93-589 cell membrane at 1 times MIC incubated for 48 hrs by UV-visible spectrophotometric analysis; format: functional, cell membranes
# [26] = Cytotoxicity against human HEK293 cells assessed as cell survival at 0.5 times MIC incubated for 24 hrs by MTT assay; format: cell-based; details: read-out: Activity
# Aspergillus fumigatus = assay: Antifungal activity against Aspergillus fumigatus incubated for 48 hrs by broth microdilution method; format: functional
# Pichia kudriavzevii = assay: Antifungal activity against Candida krusei incubated for 24 hrs by broth microdilution method; format: functional
# Cryptococcus neoformans [27] = assay: Antifungal activity against Cryptococcus neoformans PFCC 93-589 after 2 days in absence of sorbitol by microdilution assay; format: functional; details: PFCC 93-589, 48 h, time 2 day
# Cryptococcus neoformans [28] = assay: Induction of morphological changes in Cryptococcus neoformans PFCC 93-589 assessed as excessive vacuolization at 2 ug/ml after 48 hrs by TEM analysis; format: functional, organism-based; details: dose 2.0 µg/ml
# [29] = Cytotoxicity against human HEK293 cells assessed as cell survival at 1 times MIC incubated for 24 hrs by MTT assay; format: cell-based; details: read-out: Activity
# Cryptococcus neoformans [30] = assay: Synergistic antifungal activity against Cryptococcus neoformans PFCC 93-589 assessed as fractional inhibitory concentration index in presence of fluconazole by checkerboard microtiter assay; format: functional
# Candida parapsilosis = assay: Antifungal activity against Candida parapsilosis incubated for 24 hrs by broth microdilution method; format: functional; details: Lodderomyces parapsilosis
# [31] = Cytotoxicity against human HEK293 cells assessed as inhibition of cell viability at 2 times MIC incubated for 24 hrs by MTT assay; format: cell-based; details: at 8 µg/mL, read-out: INH
# Nakaseomyces glabratus = assay: Antifungal activity against Candida glabrata incubated for 24 hrs by broth microdilution method; format: functional
# Cryptococcus neoformans [32] = assay: Antifungal activity against Cryptococcus neoformans PFCC 93-589 after 2 days in presence of sorbitol by microdilution assay; format: functional; details: PFCC 93-589, 48 h, time 2 day
# Candida albicans = assay: Antifungal activity against Candida albicans incubated for 24 hrs by broth microdilution method; format: functional
# Cryptococcus neoformans [33] = assay: Antifungal activity against Cryptococcus neoformans PFCC 93-589 assessed as inhibition of melanin production at 0.5 times MIC incubated for 2 to 10 days; format: functional, organism-based; details: time 2-10 day
smiles,measurement,setting,value
CC[C@@H](C)[C@@H]1NC(=O)[C@@H]2CCCN2C(=O)[C@H](Cc2ccccc2)N(C)C(=O)[C@H](Cc2ccccc2)NC(=O)[C@H](C(C)C)N(C)C(=O)[C@@H]([C@H](C)CC)OC(=O)[C@H](C(C)(C)O)N(C)C(=O)[C@H](CC(C)C)NC(=O)[C@H](C(C)C)N(C)C1=O [AUREOBASIDIN A] (cyclo(F[NMeF]P[aIle][NMeV]L[NMeVal(β-OH)][X1][NMeV])),Activity,Cryptococcus neoformans [1],1.46 nmol
same,fold change (FC),Cryptococcus neoformans [2],0.2
same,"hemolysis at 0.5 h, 4 ug/ml",[3],1.35%
same,"viability at 24 h, 0.25 times MIC",[4],98%
same,inhibition,Cryptococcus neoformans [5],80%
same,Activity,Cryptococcus neoformans [6],Active
same,Activity,Cryptococcus neoformans [7],2.12 nmol
same,"hemolysis at 0.5 h, 8 ug/ml",[8],2.4%
same,Activity,Cryptococcus neoformans [9],3.09 nmol
same,MIC,Cryptococcus neoformans [10],1 µg/mL
same,"hemolysis at 0.5 h, 2 ug/ml",[11],0.65%
same,MIC,Aspergillus niger,800 µg/mL
same,Activity,Cryptococcus neoformans [12],0.078
same,inhibition,Cryptococcus neoformans [13],29.1%
same,Activity,Cryptococcus neoformans [14],0.095
same,MIC,Candida tropicalis,< 2000 µg/mL
same,MFC,Cryptococcus neoformans [15],8 µg/mL
same,MIC,Cryptococcus neoformans [16],16 µg/mL
same,"hemolysis at 0.5 h, 1 ug/ml",[17],0.31%
same,MIC,Cryptococcus neoformans [18],16 µg/mL
same,MIC,Cryptococcus neoformans [19],2 µg/mL
same,MIC,Aspergillus flavus,> 50000 µg/mL
same,MIC,Cryptococcus neoformans [20],4 µg/mL
same,fold change (FC),Cryptococcus neoformans [21],11.7
same,"hemolysis at 0.5 h, 0.5 ug/ml",[22],0%
same,Activity,Cryptococcus neoformans [23],Active
same,Activity,Cryptococcus neoformans [24],2.51 mM
same,inhibition,Cryptococcus neoformans [25],41.8%
same,"viability at 24 h, 0.5 times MIC",[26],89%
same,MIC,Aspergillus fumigatus,> 50000 µg/mL
same,MIC,Pichia kudriavzevii,< 2000 µg/mL
same,MIC,Cryptococcus neoformans [27],8 µg/mL
same,Activity,Cryptococcus neoformans [28],Active
same,"viability at 24 h, 1 times MIC",[29],75%
same,fractional inhibitory concentration index (FICI),Cryptococcus neoformans [30],0.26
same,MIC,Candida parapsilosis,< 2000 µg/mL
same,"cytotoxicity at 24 h, 2 times MIC",[31],40%
same,MIC,Nakaseomyces glabratus,< 2000 µg/mL
same,MIC,Cryptococcus neoformans [32],8 µg/mL
same,MIC,Candida albicans,< 2000 µg/mL
same,Activity,Cryptococcus neoformans [33],Active
